In one data set the target is hERG potassium channel (Homo sapiens (Human), UniProt Q12809). Briefly: hERG whole-cell patch-clamp in stably transfected CHO cells. Type of data set: cell-based. To be noted: for IC20: estimated based on the IC50 value; for selectivity ratio: human, CHO cells stably expressing hERG, pH 7.4, hERG IC20 / hTAAR1 EC50, read-out: hERG selectivity ratio versus hTAAR1 EC50; for pIC50: patch-clamp, CHO cells, 36±1° C. How it is done:
The whole-cell patch-clamp technique was used to investigate the effects of the test items on hERG (human-ether-a-go-go related gene) potassium channels in stably transfected CHO cells near physiological temperature (36±1° C.). The effects of compounds on hERG K^+-current parameters were evaluated at 4 concentrations (0.3-3-30-300 μM) in at least 3 CHO cells stably expressing the hERG channel. For electrophysiological measurements cells were seeded onto 35 mm sterile culture dishes containing 2 ml culture medium without Hygromycin B. Cells were cultivated at a density that enabled single cells (without visible connections to neighbouring cells) to be measured. Cells were incubated at 37° C. in a humidified atmosphere with 5% CO2 (rel. humidity about 95%). The cells were continuously maintained in and passaged in sterile culture flasks containing nutrient mixture F-12 (DMEM/F-12 with L-Glutamine) supplemented with 10% foetal bovine serum and 10% penicillin/streptomycin solution. […] The 35 mm culture dishes upon which cells were seeded at a density allowing single cells to be recorded were placed on the dish holder of the microscope and continuously perfused (at approximately 1 ml/min) with the bath solution (sodium chloride 150 mM, potassium chloride 4 mM, calcium chloride 1.2 mM, magnesium chloride 1 mM, HEPES 10 mM, pH (NaOH) 7.4) at near physiological temperature (36±1° C.). After formation of a Gigaohm seal between the patch electrodes and individual hERG stably transfected CHO cells (pipette resistance range: 2.0 MΩ-7.0 Mω; seal resistance range: >1 Gω) the cell membrane across the pipette tip was ruptured to assure electrical access to the cell interior (whole-cell patch-configuration). In case the quality of the seal was poor, the process of seal formation was repeated with a different cell and a new pipette. […] This voltage protocol was run at least 10 times at intervals of 10 s. If current density was judged to be too low for measurement, another cell was recorded. […] During wash-in of the test item the voltage protocol indicated above was run continuously again at 10 s intervals until the steady-state level of block was reached. The four test item concentrations of the compound were applied sequentially to 3 cells in a cumulative manner. […] Based on the IC50 value the IC20 was estimated. Each concentration of the test item was analyzed in three experiments (n=3).

Another data set addresses human DAT (Homo sapiens (Human), UniProt Q01959). Briefly: Binding to dopamine transporter (DAT) in vitro, [3H]-WIN35,428 SPA. The following applies: for pKi: [3H]-WIN35,428 radioligand. The protocol: Binding to dopamine transporter (DAT) in vitro. Human embryonic kidney (HEK) 293 cells (Invitrogen, Zug, Switzerland) stably transfected with human DAT were cultured. The cells were collected and washed three times with phosphate-buffered saline (PBS). The pellets were frozen at −80° C. The pellets were then resuspended in 400 ml of 20 mM HEPES-NaOH, pH 7.4, that contained 10 mM EDTA at 4° C. After homogenization with a Polytron (Kinematica, Lucerne,
Switzerland) at 10000 rotations per minute (rpm) for 15 s, the homogenates were centrifuged at 48000×g for 30 min at 4° C. Aliquots of the membrane stocks were frozen at −80° C. All assays were performed at least three times. The test compounds were diluted in […] of binding buffer (252 mM NaCl, 5.4 mM KCl, 20 mM Na2HPO4, 3.52 mM KH2PO4, pH 7.4) and 10 point dilution curves were made and transferred to 96-well white polystyrene assay plates (Sigma-Aldrich, Buchs, Switzerland). […] Twenty microliters of binding buffer alone in the assay plate defined the total binding, whereas binding in the presence of 10 μM indatraline defined nonspecific binding. Frozen DAT membrane stocks were thawed and resuspended to a concentration of approximately 0.04 mg protein/ml binding buffer (1:1 diluted in H2O) using a polytron tissue homogenizer. The membrane homogenates (40 μg/ml) were then lightly mixed for 5-30 min with polyvinyl toluene […] wheat germ agglutinin-coated scintillation proximity assay (WGASPA; Amersham Biosciences) beads at 7.7 mg beads/ml homogenate. One hundred thirty microliters of the membrane/bead mixture were added to each well of the assay plate that contained radioligand and test compounds (final volume in each well, 200 μl) to start the assay, which was incubated for approximately 2 h at room temperature with agitation. The assay plates were then counted in the PVT SPA counting mode of a Packard Topcount. […] Non-linear regression was used to fit the data to sigmoid curves and determine IC50 values for binding and uptake. Ki values for binding and uptake were calculated using the following Cheng-Prusoff equation: Ki=IC50/(1+[S]/Km).

The target of a further data set is human TAAR1 (Homo sapiens (Human), UniProt Q96RJ0). Briefly: cAMP functional assay in HEK293 cells expressing human TAAR1. Type of data set: cell-based. To be noted: for hTAAR1 efficacy*: % agonist activity, β-phenylethylamine = 100% agonism; for pEC50: cAMP, HEK293 cells expressing human TAAR1, read-out: hTAAR1 EC50. How it is done:
For the construction of expression plasmids the coding sequences of human TAAR 1 were amplified from genomic DNA essentially as described by Lindemann et al.[14]. The Expand High Fidelity PCR System (Roche Diagnostics) was used with 1.5 mM Mg^2+ and purified PCR products were cloned into pCR2.1-TOPO cloning vector (Invitrogen) following the instructions of the manufacturer. PCR products were subcloned into the pIRESneo2 vector (BD Clontech, Palo Alto, Calif.), and expression vectors were sequence verified before introduction in cell lines.
HEK293 cells (ATCC # CRL-1573) were cultured essentially as described by Lindemann et al. (2005). For the generation of stably transfected cell lines HEK293 cells were transfected with the pIRESneo2 expression plasmids containing the TAAR coding sequences (described above) with Lipofectamine 2000 (Invitrogen) according to the instructions of the manufacturer, and 24 hrs post transfection the culture medium was supplemented with 1 mg/ml G418 (Sigma, Buchs, Switzerland). After a culture period of about 10 d clones were isolated, expanded and tested for responsiveness to trace amines (all compounds purchased from Sigma) with the cAMP Biotrak Enzyme immunoassay (EIA) System (Amersham) following the non-acetylation EIA procedure provided by the manufacturer.
cAMP measurements were performed as described previously (Revel et al., Proc. Natl. Acad. Sci. USA 2011, 108, 8485-8490). In brief, cells that expressed human TAAR1 were plated on 96-well plates (BIOCOAT 6640; Becton Dickinson, Allschwil, Switzerland) and incubated for 20 h at 37° C. Prior to stimulation of the cells with a broad concentration range of agonists for 30 min at 37° C., the cells were washed with PBS and preincubated with PBS that contained 1 mM 3-isobutyl-1-methylxanthine for 10 min at 37° C. and 5% CO2. Stimulation with 0.2% DMSO was set as the basal level, and the effect of 30 μM β-PEA was set as the maximal response. Subsequently, the cells were lysed, and cAMP assays were performed according to the manufacturer's instructions (cAMP kit; Upstate/Millipore, Schaffhausen, Switzerland). Finally, the plates were read with a luminometer (1420 Multilabel counter; PerkinElmer, Schwerzenbach, Switzerland), and the amount of cAMP was calculated. The results were obtained from at least three independent experiments. Experiments were run in duplicate or triplicate. EC50 values are presented as mean ±standard deviation (in μM).

The source of these data is patent US10508107B2, “Morpholine derivative” (Hoffmann-La Roche Inc., priority 2016, dated 2019).

pEC50, pIC50, pKi: −log10 of the molar value.

Sequence of human DAT (Q01959 whole entry): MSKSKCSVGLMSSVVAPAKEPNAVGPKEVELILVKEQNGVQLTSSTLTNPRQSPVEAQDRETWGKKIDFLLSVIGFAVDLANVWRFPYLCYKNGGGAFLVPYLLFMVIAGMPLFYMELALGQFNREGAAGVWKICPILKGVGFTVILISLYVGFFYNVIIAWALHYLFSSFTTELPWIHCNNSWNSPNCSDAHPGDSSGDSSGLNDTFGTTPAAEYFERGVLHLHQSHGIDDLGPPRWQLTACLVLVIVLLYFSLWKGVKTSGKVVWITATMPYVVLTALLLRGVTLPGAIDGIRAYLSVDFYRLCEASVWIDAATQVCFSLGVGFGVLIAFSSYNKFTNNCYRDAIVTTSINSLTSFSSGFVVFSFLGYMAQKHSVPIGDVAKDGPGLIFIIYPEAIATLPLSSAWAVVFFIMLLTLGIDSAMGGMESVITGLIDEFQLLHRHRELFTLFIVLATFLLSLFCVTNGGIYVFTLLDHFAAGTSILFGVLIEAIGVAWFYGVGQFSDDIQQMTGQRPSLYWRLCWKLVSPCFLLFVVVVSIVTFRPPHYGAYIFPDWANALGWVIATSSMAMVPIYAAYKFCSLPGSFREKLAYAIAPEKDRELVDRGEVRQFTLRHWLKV
Sequence of hERG potassium channel (Q12809 whole entry): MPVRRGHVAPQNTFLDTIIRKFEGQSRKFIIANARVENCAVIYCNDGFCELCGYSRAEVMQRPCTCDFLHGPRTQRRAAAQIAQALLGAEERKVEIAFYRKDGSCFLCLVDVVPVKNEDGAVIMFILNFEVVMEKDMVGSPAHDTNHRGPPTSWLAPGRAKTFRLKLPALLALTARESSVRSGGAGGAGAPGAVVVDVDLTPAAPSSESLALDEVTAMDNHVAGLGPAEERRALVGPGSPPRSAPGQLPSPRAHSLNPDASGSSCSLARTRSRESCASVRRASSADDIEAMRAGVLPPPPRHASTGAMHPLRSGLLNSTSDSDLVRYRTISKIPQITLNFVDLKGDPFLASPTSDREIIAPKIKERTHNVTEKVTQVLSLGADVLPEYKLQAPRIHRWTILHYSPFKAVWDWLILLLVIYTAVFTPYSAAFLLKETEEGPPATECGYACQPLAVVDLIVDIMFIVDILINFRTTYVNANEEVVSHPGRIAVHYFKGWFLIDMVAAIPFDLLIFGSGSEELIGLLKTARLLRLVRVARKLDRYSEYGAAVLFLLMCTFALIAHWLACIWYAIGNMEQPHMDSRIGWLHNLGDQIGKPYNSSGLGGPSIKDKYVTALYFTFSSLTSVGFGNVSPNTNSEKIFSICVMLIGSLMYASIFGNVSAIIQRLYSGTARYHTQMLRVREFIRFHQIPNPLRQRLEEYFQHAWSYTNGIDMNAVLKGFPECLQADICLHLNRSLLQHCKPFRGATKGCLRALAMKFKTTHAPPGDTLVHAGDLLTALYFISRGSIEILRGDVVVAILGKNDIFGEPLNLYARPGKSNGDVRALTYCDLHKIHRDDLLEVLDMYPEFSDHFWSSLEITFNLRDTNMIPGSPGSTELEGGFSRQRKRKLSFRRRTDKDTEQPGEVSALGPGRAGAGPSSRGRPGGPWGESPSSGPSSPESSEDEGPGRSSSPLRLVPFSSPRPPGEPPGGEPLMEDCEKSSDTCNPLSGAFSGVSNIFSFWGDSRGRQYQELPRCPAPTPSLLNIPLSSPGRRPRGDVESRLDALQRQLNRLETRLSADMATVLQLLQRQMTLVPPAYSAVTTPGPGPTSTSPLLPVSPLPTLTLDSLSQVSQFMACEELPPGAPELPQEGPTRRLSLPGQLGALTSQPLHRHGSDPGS
Sequence of human TAAR1 (Q96RJ0 whole entry): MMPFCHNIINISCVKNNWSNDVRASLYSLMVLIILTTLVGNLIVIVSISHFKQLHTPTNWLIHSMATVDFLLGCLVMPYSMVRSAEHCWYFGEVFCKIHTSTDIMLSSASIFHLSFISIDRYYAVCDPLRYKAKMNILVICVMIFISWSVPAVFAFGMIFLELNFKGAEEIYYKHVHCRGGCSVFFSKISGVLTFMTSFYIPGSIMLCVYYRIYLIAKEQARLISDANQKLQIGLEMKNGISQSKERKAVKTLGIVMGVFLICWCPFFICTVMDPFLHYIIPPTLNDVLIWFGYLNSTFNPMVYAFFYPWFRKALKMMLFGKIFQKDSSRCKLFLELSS

Regarding `Cc1nc(C(=O)Nc2ccc([C@H]3CNCCO3)cc2)cs1` [Example 19, N-[4-[(2S)-Morpholin-2-yl]phenyl]2-methyl-1,3-thiazole-4-carboxamide], on hERG potassium channel, the “Ratio hERG IC20/hTAAR1 EC50” value was found to be 8, the IC20 was 8.32 µM, the selectivity ratio came to 8 and the pIC50 was 4.22. For the same molecule, on human DAT, the “Ratio DAT Ki/hTAAR1 EC50” value is on record as 21 and the pKi is 4.66. Moreover, on human TAAR1, the “hTAAR1 efficacy*” value is 32% and the pEC50 was 5.99.
With `O=C(Nc1ccc([C@H]2CNCCO2)cc1)c1ccn(-c2ccccc2)n1` [Example 20, N-[4-[(2S)-Morpholin-2-yl]phenyl]-1-phenylpyrazole-3-carboxamide], on hERG potassium channel, the “Ratio hERG IC20/hTAAR1 EC50” value was 1, the IC20 was 2.49 µM, the selectivity ratio came out at 1 and the pIC50 is 4.97. On human DAT, the “Ratio DAT Ki/hTAAR1 EC50” value was more than 11 and the pKi is less than 4.58. Besides, on human TAAR1, the “hTAAR1 efficacy*” value came out at 59% and the negative-log EC50 (pEC50) is 5.61.

As usually defined, the IC20 is the concentration at which the effect reaches the 20% level. As usually defined, the pIC50 is −log10 of the IC50, conventionally taken in molar units. Read a low pIC50 as a high IC50. The term pKi denotes the negative decadic logarithm of the Ki, by convention in mol/L. In general, pEC50 refers to −log10 of the EC50, conventionally taken in molar units.
